Data on eleven molecules can be found in patent US12662451B2, “Chemical compounds and uses thereof” (GLAXOSMITHKLINE INTELLECTUAL PROPERTY (NO.4) LIMITED, priority 2023, dated 2026).

Read-outs that look alike come from different tables or passages of the source.

Series [1] concerns the target T1, recombinant full-length WRN protein (1-1432) (Homo sapiens, UniProt Q14191).
T1 construct: recombinant full-length WRN protein (1-1432)
As to the kind of experiment: WRN unwinding activity, fluorogenic 384-well assay (Example A). The class given is biochemical. To be noted: WRN unwinding activity, 4 hr; Table 2; read-out: 4 hr UNW pIC50 (converted). Summed up:
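200 pM enzyme (2× stock) preincubated with compound 4 h at ambient temperature, then 200 μM ATP and 12 nM quenched TAMRA-labelled dsDNA (2× stocks) added for 60 min; EDTA-quenched. Buffer 25 mM Tris pH 8.0, 5 mM NaCl, 2 mM MgCl2. Fluorescence at 525/598 nm; pIC50 from four-parameter fit.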

The nature of series [2]: Cell culture media unbound percentage and stability by rapid equilibrium dialysis (Example C). The class given is in vitro ADME. The conditions noted are these: bovine, cell assay medium (RPMI-1640 with 10% fetal bovine serum), pH 7.4, rapid equilibrium dialysis, 4 hours at 37° C., read-out: Cell Culture Media Binding (% unbound). Summed up:
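Compound spiked into cell culture medium at nominal 1 μM and dialysed against PBS (100 mM sodium phosphate + 150 mM NaCl, pH 7.4) by rapid equilibrium dialysis, triplicate, 4 h at 37° C with shaking. LC-MS/MS peak area ratios gave percent unbound (receiver/donor) and percent stability (240 min vs 0 min).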
In general terms: In equilibrium dialysis only unbound substance equilibrates across the membrane.

For series [3], the system named is SW48 human colorectal cancer cells. As to the kind of experiment: Calculated free drug potency in SW48 cell assay, corrected with media free fraction (Example C). The series is classed as cell-based. The conditions noted are these: Homo sapiens, SW48, SW48 pCC50 corrected with measured free fraction in cell assay media. Summed up: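 Compound spiked at nominal 1 μM into cell assay medium and dialysed against PBS (100 mM sodium phosphate, 150 mM NaCl, pH 7.4) by rapid equilibrium dialysis, 4 h, 37 °C, shaking. Percent unbound from LC-MS/MS peak area ratios (240 min vs 0 min); cell assay concentrations corrected by this free fraction.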

Series [4] deals with SW48 human colorectal cancer cells (MSI-H cancer cells). The series can be described thus: SW48 cell viability, CellTiter-Glo, 120 hours (Example B). The conditions noted are these: Homo sapiens. (In general: Cellular ATP, detected with luciferase, serves as a proxy for viable cell number.)
[5] abbreviates: SW48, 120 h, read-out: SW48 pCC50, SW48 cell viability, 120 hours incubation (converted), Table 2.
The mark [6] stands for this setting: SW48, read-out: SW48 pCC50, measured potency from Example B, as repeated in Table 3 (converted).

T1 sequence (Q14191 whole entry): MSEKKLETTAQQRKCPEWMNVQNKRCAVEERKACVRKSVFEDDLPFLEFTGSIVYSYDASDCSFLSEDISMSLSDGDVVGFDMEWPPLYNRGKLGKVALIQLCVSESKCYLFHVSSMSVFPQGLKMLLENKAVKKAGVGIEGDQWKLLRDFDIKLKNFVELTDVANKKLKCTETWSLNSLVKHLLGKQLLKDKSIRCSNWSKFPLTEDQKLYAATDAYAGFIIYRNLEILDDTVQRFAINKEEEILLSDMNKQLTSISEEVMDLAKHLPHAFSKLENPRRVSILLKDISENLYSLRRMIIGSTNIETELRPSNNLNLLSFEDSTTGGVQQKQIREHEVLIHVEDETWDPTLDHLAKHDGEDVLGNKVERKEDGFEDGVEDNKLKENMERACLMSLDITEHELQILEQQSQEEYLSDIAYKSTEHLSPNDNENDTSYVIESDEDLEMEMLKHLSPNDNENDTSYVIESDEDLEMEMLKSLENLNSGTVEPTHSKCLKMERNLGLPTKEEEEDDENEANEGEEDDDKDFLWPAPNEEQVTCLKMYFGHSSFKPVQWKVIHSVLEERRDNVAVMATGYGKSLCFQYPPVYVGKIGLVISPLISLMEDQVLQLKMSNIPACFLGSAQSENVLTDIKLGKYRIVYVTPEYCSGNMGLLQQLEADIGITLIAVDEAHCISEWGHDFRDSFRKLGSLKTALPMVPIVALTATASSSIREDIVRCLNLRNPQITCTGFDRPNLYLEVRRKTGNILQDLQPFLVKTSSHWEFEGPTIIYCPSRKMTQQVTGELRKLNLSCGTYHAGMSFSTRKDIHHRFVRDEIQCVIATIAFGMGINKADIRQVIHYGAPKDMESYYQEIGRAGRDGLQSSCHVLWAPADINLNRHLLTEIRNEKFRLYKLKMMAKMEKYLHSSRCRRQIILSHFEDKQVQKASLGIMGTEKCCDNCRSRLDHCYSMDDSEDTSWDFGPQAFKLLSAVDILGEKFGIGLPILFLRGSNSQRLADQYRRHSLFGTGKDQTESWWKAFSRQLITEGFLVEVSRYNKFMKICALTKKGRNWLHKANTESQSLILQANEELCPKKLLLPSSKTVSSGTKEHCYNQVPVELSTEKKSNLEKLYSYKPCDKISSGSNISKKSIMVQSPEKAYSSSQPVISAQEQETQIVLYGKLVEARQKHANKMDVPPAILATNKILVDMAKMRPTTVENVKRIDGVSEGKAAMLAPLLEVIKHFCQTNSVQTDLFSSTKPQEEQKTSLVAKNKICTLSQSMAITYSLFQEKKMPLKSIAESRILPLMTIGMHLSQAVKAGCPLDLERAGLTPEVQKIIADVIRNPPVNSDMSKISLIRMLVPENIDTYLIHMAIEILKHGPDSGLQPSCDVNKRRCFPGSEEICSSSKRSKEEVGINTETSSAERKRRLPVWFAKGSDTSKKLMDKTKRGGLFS

For the molecule `Cc1nc2cc(S(=O)(=O)N(C)c3ccc([C@@H]4C[C@H](NCC(F)(F)F)C[C@H](C(=O)Nc5ccc(C(F)(F)F)cc5F)[C@H]4C(=O)O)cc3)ccc2n1C` (stereo in doubt) [Example 333, rel-(1R,2R,4R,6S)-2-((2-fluoro-4-(trifluoromethyl)phenyl)carbamoyl)-4-((2,2,2-trifluoroethyl)amino)-6-(4-((N,1,2-trimethyl-1H-benzo[d]imidazole)-5-sulfonamido)phenyl)cyclohexane-1-carboxylic acid], in series [1], the IC50 was 126 nM. In addition, the fraction unbound at 4 h, 1 µM in series [2] was 0.326. Moreover, the CC50 in series [3] is 3240 nM; in series [4] (setting [5]), 10000 nM.

Consider `Cc1nc2cc(S(=O)(=O)N(C)c3ccc([C@H]4C[C@@H](NCC(F)(F)F)C[C@@H](C(=O)Nc5ccc(C(F)(F)F)cc5F)[C@@H]4C(=O)O)cc3)ccc2n1C` (stereo in doubt) [Example 334, rel-(1R,2R,4R,6S)-2-((2-fluoro-4-(trifluoromethyl)phenyl)carbamoyl)-4-((2,2,2-trifluoroethyl)amino)-6-(4-((N,1,2-trimethyl-1H-benzo[d]imidazole)-5-sulfonamido)phenyl)cyclohexane-1-carboxylic acid], for which the IC50 in series [1] is 1.58 nM. For the same molecule, the fraction unbound at 4 h, 1 µM in series [2] was found to be 0.183. Further, the CC50 in series [3] is 45.7 nM; in series [4] (setting [5]), 251 nM; in series [4] (setting [6]), 251 nM.

`Cc1nc2cc(S(=O)(=O)N(C)c3ccc([C@H]4C[C@H](NCC(F)(F)F)C[C@@H](C(=O)Nc5ccc(C(F)(F)F)cc5F)[C@@H]4C(=O)O)cc3)ccc2n1C` (stereo in doubt) [Example 336, rel-(1R,2R,4S,6S)-2-((2-fluoro-4-(trifluoromethyl)phenyl)carbamoyl)-4-((2,2,2-trifluoroethyl)amino)-6-(4-((N,1,2-trimethyl-1H-benzo[d]imidazole)-5-sulfonamido)phenyl)cyclohexane-1-carboxylic acid]: the IC50 in series [1] is 1.58 nM. Also, the fraction unbound at 4 h, 1 µM in series [2] amounted to 0.0491. Moreover, the CC50 is 155 nM in series [3], 3160 nM in series [4] (setting [5]) and 3160 nM in series [4] (setting [6]).

Regarding `Cc1nc2cc(S(=O)(=O)N(C)c3ccc([C@@H]4C[C@H](N5CCC(F)(F)CC5)C[C@H](C(=O)Nc5ccc(C(F)(F)F)cc5F)[C@H]4C(=O)O)cc3)ccc2n1C` (stereo in doubt) [Example 343], the IC50 in series [1] is 100 nM. For the same molecule, in series [2], the fraction unbound at 4 h, 1 µM came to 0.237. The results for the CC50 in series [3], in series [4] (setting [5]) and in series [4] (setting [6]) were 1170 nM, 5010 nM and 5010 nM, respectively.

As to `Cc1nc2cc(S(=O)(=O)N(C)c3ccc([C@H]4C[C@@H](N5CCC(F)(F)CC5)C[C@@H](C(=O)Nc5ccc(C(F)(F)F)cc5F)[C@@H]4C(=O)O)cc3)ccc2n1C` (stereo in doubt) [Example 344], the IC50 in series [1] was 5.01 nM. Further, the fraction unbound at 4 h, 1 µM in series [2] turned out to be 0.118. Also, the CC50 in series [3] is 14.8 nM; in series [4] (setting [5]), 126 nM; in series [4] (setting [6]), 126 nM.

For `Cc1nc2cc(S(=O)(=O)N(C)c3ccc([C@@H]4C[C@@H](N5CCC[C@@H](F)C5)C[C@H](C(=O)Nc5ccc(C(F)(F)F)cc5F)[C@H]4C(=O)O)cc3)ccc2n1C` (stereo in doubt) [Example 346, rel-(1R*,2R*,4S*,6S*)-2-((2-fluoro-4-(trifluoromethyl)phenyl)carbamoyl)-4-((R)-3-fluoropiperidin-1-yl)-6-(4-((N,1,2-trimethyl-1H-benzo[d]imidazole)-5-sulfonamido)phenyl)cyclohexane-1-carboxylic acid], the IC50 in series [1] is 3980 nM. In addition, the fraction unbound at 4 h, 1 µM in series [2] was determined as 0.419. In addition, the CC50 in series [3] is 4170 nM; in series [4] (setting [5]) it was 10000 nM.

Consider `Cc1nc2cc(S(=O)(=O)N(C)c3ccc([C@H]4C[C@@H](N5CCC[C@H](F)C5)C[C@@H](C(=O)Nc5ccc(C(F)(F)F)cc5F)[C@@H]4C(=O)O)cc3)ccc2n1C` (stereo in doubt) [Example 350, rel-(1R*,2R*,4R*,6S*)-2-((2-fluoro-4-(trifluoromethyl)phenyl)carbamoyl)-4-((S)-3-fluoropiperidin-1-yl)-6-(4-((, 1,2-trimethyl-1H-benzo[d]imidazole)-5-sulfonamido)phenyl)cyclohexane-1-carboxylic acid], for which the IC50 in series [1] is 1.58 nM. Further, in series [2], the fraction unbound at 4 h, 1 µM came out at 0.218. Besides, the CC50 in series [3] is 13.8 nM; in series [4] (setting [5]) it was 63.1 nM; in series [4] (setting [6]), 63.1 nM.

As to `Cc1nc2cc(S(=O)(=O)N(C)c3ccc([C@H]4C[C@H](N5CCCC(F)(F)C5)C[C@@H](C(=O)Nc5ccc(C(F)(F)F)cc5F)[C@@H]4C(=O)O)cc3)ccc2n1C` (stereo in doubt) [Example 352, rel-(1R,2R,4S,6S)-4-(3,3-difluoropiperidin-1-yl)-2-((2-fluoro-4-(trifluoromethyl)phenyl)carbamoyl)-6-(4-((N,1,2-trimethyl-1H-benzo[d]imidazole)-5-sulfonamido)phenyl)cyclohexane-1-carboxylic acid], in series [1], the IC50 is 3.98 nM. For the same molecule, the fraction unbound at 4 h, 1 µM in series [2] worked out at 0.028. Besides, the figures for the CC50 in series [3], in series [4] (setting [5]) and in series [4] (setting [6]) were 112 nM, 3980 nM and 3980 nM, respectively.

For `Cc1nc2cc(S(=O)(=O)N(C)c3ccc([C@H]4C[C@@H](OCC5CCOCC5)C[C@@H](C(=O)Nc5ccc(C(F)(F)F)cc5F)[C@@H]4C(=O)O)cc3)ccc2n1C` (stereo in doubt) [Example 355, rel-(1R,2R,4R,6S)-2-((2-fluoro-4-(trifluoromethyl)phenyl)carbamoyl)-4-((tetrahydro-2H-pyran-4-yl)methoxy)-6-(4-((N,1,2-trimethyl-1H-benzo[d]imidazole)-5-sulfonamido)phenyl)cyclohexane-1-carboxylic acid], the IC50 in series [1] is 3.98 nM. Besides, the fraction unbound at 4 h, 1 µM in series [2] is 0.128. Besides, the CC50 was 12.9 nM in series [3], 100 nM in series [4] (setting [5]) and 100 nM in series [4] (setting [6]).

`Cc1nc2cc(S(=O)(=O)N(C)c3ccc([C@@H]4C[C@@H](N5CCCC(F)(F)C5)C[C@H](C(=O)Nc5ccc(C(F)(F)F)cc5F)[C@H]4C(=O)O)cc3)ccc2n1C` (stereo in doubt) [Example 362, rel-(1R,2R,4S,6S)-4-(3,3-difluoropiperidin-1-yl)-2-((2-fluoro-4-(trifluoromethyl)phenyl)carbamoyl)-6-(4-((N,1,2-trimethyl-1H-benzo[d]imidazole)-5-sulfonamido)phenyl)cyclohexane-1-carboxylic acid]: the IC50 in series [1] is 1580 nM. Further, in series [2], the fraction unbound at 4 h, 1 µM came out at 0.169. Also, the values for the CC50 in series [3] and in series [4] (setting [5]) were 1700 nM and 10000 nM, respectively.

On to `Cc1nc2cc(S(=O)(=O)N(C)c3ccc([C@H]4C[C@@H](OCC5(C)COC5)C[C@@H](C(=O)Nc5ccc(C(F)(F)F)cc5F)[C@@H]4C(=O)O)cc3)ccc2n1C` (stereo in doubt) [Example 367, rel-(1R,2R,4R,6S)-2-((2-fluoro-4-(trifluoromethyl)phenyl)carbamoyl)-4-((3-methyloxetan-3-yl)methoxy)-6-(4-((N,1,2-trimethyl-1H-benzo[d]imidazole)-5-sulfonamido)phenyl)cyclohexane-1-carboxylic acid], for which the IC50 in series [1] is 1.58 nM. Moreover, in series [2], the fraction unbound at 4 h, 1 µM was found to be 0.145. For the same molecule, the CC50 in series [3] was 11.5 nM; in series [4] (setting [5]), 79.4 nM; in series [4] (setting [6]), 79.4 nM.
